According to patent publication US7326700B2, “Cyclohexenyl phenyl carboxamides tocolytic oxytocin receptor antagonists” (Wyeth, priority 2001, dated 2008):
pIC50: −log10 of the molar value.

Each compound was assayed against T1, human oxytocin receptor (Homo sapiens, UniProt P30559) (assay: Oxytocin binding in CHO cell membranes expressing human oxytocin receptors ([3H]oxytocin radioligand binding)). Conditions: 100 nM.
T1 construct: host or cells: CHO cells, stably transfected (pcDNA3.1 vector)
T1 sequence (P30559 1-389): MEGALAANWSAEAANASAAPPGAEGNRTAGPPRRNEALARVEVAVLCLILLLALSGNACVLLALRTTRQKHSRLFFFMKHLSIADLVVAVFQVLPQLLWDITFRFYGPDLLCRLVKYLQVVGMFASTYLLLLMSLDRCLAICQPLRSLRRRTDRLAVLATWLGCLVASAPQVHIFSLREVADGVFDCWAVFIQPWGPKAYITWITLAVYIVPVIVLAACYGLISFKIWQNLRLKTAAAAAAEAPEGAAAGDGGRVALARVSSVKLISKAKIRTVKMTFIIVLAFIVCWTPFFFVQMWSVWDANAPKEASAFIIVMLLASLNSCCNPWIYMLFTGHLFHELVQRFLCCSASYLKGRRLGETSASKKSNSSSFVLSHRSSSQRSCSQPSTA
Excerpt: Chinese Hamster Ovary (CHO) cells stably transfected with the human oxytocin recptor (cf. Tanizawa et al., U.S. Pat. No. 5,466,584 (1995) to Rohto Pharmaceutical Co. Ltd., Osaka, Japan) were obtained from M. Thibonnier, Case Western Reserve University School of Medicine, Cleveland, Ohio.
CHO cells transfected with the human oxytocin receptors obtained from M. Thibonnier (pcDNA3.1 vector) are allowed to grow to confluency (approx. >90%) in T-150 flasks under sterile conditions, in a cell culture medium consisting of F-12 Nutrient Mixture (HAM) with L-glutamine (Gibco Cat. #11765-054) containing 15 mM HEPES (Gibco Cat. #15630-080), 1% antibiotic/antimycotic (add 5 mL 1 00×, Gibco Cat. #15240-062 per 500 mL F-12), 400 μg/mL of Geneticin (add 4 mL of 50 mg/mL per 500 mL F-12) and 10% Fetal Bovine Serum (Qualified, heat inactivated, Gibco Cat. #16140-063). The medium is removed by aspiration and the cells are washed with 10 mL of Hank's Balanced Salt solution (Gibco Cat. #14175-095). The salt solution is removed by aspiration and the cells trypsinized with 5 mL of trypsin-EDTA (0.05% trypsin, 0.53 mM EDTA-4Na, Gibco Cat. #25300-070) for 1 min The trypsin is removed by aspiration and the cells dislodged by tapping. Cell Culture medium (e.g. 30 mL for 1:30 split) is immediately added and mixed well to inactivate trypsin. 1 mL of detached cells is added to new culture flasks containing fresh Cell Culture medium (e.g. into 25 mL per T-150 flask), and mixed gently. The cells are incubated at 37° C. in 5% CO2. The medium is changed at 3 to 4 days interval (or as appropriate). The cells grow to confluency (approx. >75%-95%) within 7-8 days. All steps are done under sterile conditions.
The cells are washed twice gently with Hank's Balanced Salt solution (eg, use 10 mL per T-150 flask). The excess solution is removed and the cells bathed for 15-30 min. in an enzyme-free Cell Dissociation Buffer (eg, use 8 mL Hank's Based, Gibco Cat. #13150-016 per T-150 flask) until cells are loosened. The contents are transferred to centrifuge tubes (50 mL size) kept in ice bath. All subsequent steps are done at 4° C. The tubes are centrifuged at 300×g for 15 min (1380 rpm on SORVAL, Model RT6000D, using rotor for 50 mL tubes). The supernatant is discarded and the cells suspended in homogenizing buffer (10 mM Tris-HCl containing 0.25 M sucrose and 1 mM EDTA, pH 7.4) ensuring that the volume of the buffer is about ten times the volume of the cell pellet. The cells are pooled into a centrifuge tube (50 mL) and homogenized with a Polytron at setting 6 for 10 sec. The homogenate is transferred into a Potter-Elvjehm homogenizer and homogenized with 3 strokes. The homogenate is centrifuged at 1500×g for 10 min at 4° C. (3100 rpm using SORVAL, model RT6000D, using rotor for 50 mL tubes). The pellet is discarded. The supernatant is centrifuged at 100,000×g for 60 min. at 4° C. (Beckman L8-80M ultracentrifuge; spin at 37,500 rpm with rotor type 70 Ti for 50 mL tubes; 38,000 rpm with type 80 Ti for 15 mL tubes; or 35,800 rpm with rotor type 45Ti). The supernantant is discarded and the pellet suspended in 3 to 4 mL of Tris buffer (50 mM TRIS-HCl, pH 7.4). The protein content is estimated by the Bradford or Lowry method. The volume of the membrane suspension is adjusted with the membrane buffer (50 mM Tris-HCl containing 0.1% BSA and 0.1 mM PMSF) to give 3.0 mg/mL (or as appropriate) of protein. The membranes are aliquoted and stored at −70° C.
In wells of a 96-well format microtiter plate, is added 90, 110 or 130 μL (to make up a final volume of 200 μL) of assay buffer containing 50 mM of Tris-HCl (pH 7.4), […], 1 mg % aprotinin, 1 mg % leupeptin, 2 mg % 1,10-phenanthroline, 10 mg % trypsin inhibitor, and 0.1 mM PMSF. The inhibitors are added on the day of the experiment. The components are mixed at room temperature, and then kept in ice bath following adjustment of the pH to 7.4. […]

Compound	OT % inhibition @ 100 nM [%]
Cc1cc(C(=O)N2Cc3ccc(C(=O)NCCC4CCCN4C)n3Cc3ccccc32)ccc1C1=CCCCC1 (centres unmarked) [Example 21, 10-[4-(1-Cyclohex-1-en-1-yl)-3-methylbenzoyl]-N-[2-(1-methyl-2-pyrrolidinyl)ethyl]-10,11-dihydro-5H-pyrrolo[2,1-c][1,4]benzodiazepine-3-carboxamide]	57
Cc1cc(C(=O)N2Cc3ccc(C(=O)N4CCN(CCN(C)C)CC4)n3Cc3ccccc32)ccc1C1=CCCCC1 [Example 22, {10-[4-(1-Cyclohex-1-en-1-yl)-3-methylbenzoyl]-10,11-dihydro-5H-pyrrolo[2,1-c][1,4]benzodiazepin-3-yl}{4-[2-(dimethylamino)ethyl]-1-piperazinyl}methanone]	92
Cc1cc(C(=O)N2Cc3ccc(C(=O)N4CCN(CCN5CCOCC5)CC4)n3Cc3ccccc32)ccc1C1=CCCCC1 [Example 23, {10-[4-(1-Cyclohex-1-en-1-yl)-3-methylbenzoyl]-10,11-dihydro-5H-pyrrolo[2,1-c][1,4]benzodiazepin-3-yl}{4-[2-(4-morpholinyl)ethyl]-1-piperazinyl}methanone]	79

The next lines start with the values.

OT % inhibition @ 100 nM [%]	Compound
68	C=CCN1CCN(C(=O)c2ccc3n2Cc2ccccc2N(C(=O)c2ccc(C4=CCCCC4)c(C)c2)C3)CC1 [Example 24, (4-Allyl-1-piperazinyl){10-[4-(1-cyclohex-1-en-1-yl)-3-methylbenzoyl]-10,11-dihydro-5H-pyrrolo[2,1-c][1,4]benzodiazepin-3-yl}methanone]
71	Cc1cc(C(=O)N2Cc3ccc(C(=O)N4CCN(C(C)C)CC4)n3Cc3ccccc32)ccc1C1=CCCCC1 [Example 25, {10-[4-(1-Cyclohex-1-en-1-yl)-3-methylbenzoyl]-1 0,11-dihydro-5H-pyrrolo[2,1-c][1,4]benzodiazepin-3-yl}(4-isopropyl-1-piperazinyl)methanone]
101	Cc1cc(C(=O)N2Cc3ccc(C(=O)N4CCC[C@H]4CN4CCCC4)n3Cc3ccccc32)ccc1C1=CCCCC1 [Example 26, {10-[4-(1-Cyclohex-1-en-1-yl)-3-methylbenzoyl]-10,11-dihydro-5H-pyrrolo[2,1-c][1,4]benzodiazepin-3-yl}[(2S)-2-(1-pyrrolidinylmethyl)pyrrolidinyl]methanone]
100	Cc1cc(C(=O)N2Cc3ccc(C(=O)N4CC[C@@H](N(C)C)C4)n3Cc3ccccc32)ccc1C1=CCCCC1 [Example 27, {10-[4-(1-Cyclohex-1-en-1-yl)-3-methylbenzoyl]-10,11-dihydro-5H-pyrrolo[2,1-c][1,4]benzodiazepin-3-yl}[(3R)-3-(dimethylamino)pyrrolidinyl]methanone]

Same assay, conditions: value in parentheses, read-out: OT (IC50)

pIC50	Compound
7.49	{10-[4-(1-Cyclohexen-1-yl)-3-methylbenzoyl]-10,11-dihydro-5H-pyrrolo[2,1-c][1,4]benzodiazepin-3-yl}(4-methyl-piperazin-1-yl)methanone [Example 12]
